A short description of the data set: Pharmacokinetic assay in rats, plasma LIRA by UPLC-MS/MS. Particulars: male Wistar rats, subcutaneous, single dose 200 µg/kg of LIRA, mean ± SD, n = 6. In kind it is in vivo. The source says: Ultra-performance liquid chromatography (Acquity UPLC© Waters, Milford, MA, USA), coupled with a triple quadrupole mass spectrometer (XEVO-TQD, Waters®) equipped with a Z sprayTM electrospray ionisation source (Waters®, Milford, MA, USA), was employed to detect, and quantify LIRA levels in rat plasma after treatment. An ACQUITY UPLC BEH C18 reversed-phase chromatographic column (50 mm × 2.1 mm; 1.7 µm) was used, with a mobile phase composed of acetonitrile and ultrapure water, both acidified with 0.1% formic acid, eluted in gradient mode, with varying proportions (20/80, 45/55, 60/40, 80/20, 90/10, 80/20, 30/70, 20/80) at specific time intervals (0, 1.5, 2.0, 2.5, 3.0, 3.5, 4.5, 6.0 min), with a flow rate of 0.3 mL/min, injection volume of 2 µL, with a total analysis time of 7.5 min. The samples were maintained at a temperature of 10 °C in the sampler, while the column oven was maintained at 40 °C. Detection by mass spectrometry was carried out in positive electrospray ionisation (ESI+) mode, in multiple reaction monitoring (MRM) mode, with a source temperature of 150 °C, capillary voltage equal to 3.5 kV, desolvation temperature of 600 °C, desolvation flow of 1000 L/h and gas flow in the cone of 50 L/h. […] The transitions set at m/z 938.7 → 1064.1 for LIRA and m/z 1184.7 → 454.4 for insulin detemir. […]

Our source for the Cl values is PMC11125159 (Pharmaceutics, 2024).

Marks after values point to notes of the source that are not given here.

For `CCCCCCCCCCCCCCCC(=O)N[C@@H](CCC(=O)NCCCC[C@H](NC(=O)[C@H](C)NC(=O)[C@H](C)NC(=O)[C@H](CCC(N)=O)NC(=O)CNC(=O)[C@H](CCC(=O)O)NC(=O)[C@H](CC(C)C)NC(=O)[C@H](Cc1ccc(O)cc1)NC(=O)[C@H](CO)NC(=O)[C@H](CO)NC(=O)[C@@H](NC(=O)[C@H](CC(=O)O)NC(=O)[C@H](CO)NC(=O)[C@@H](NC(=O)[C@H](Cc1ccccc1)NC(=O)[C@@H](NC(=O)CNC(=O)[C@H](CCC(=O)O)NC(=O)[C@H](C)NC(=O)[C@@H](N)Cc1cnc[nH]1)[C@@H](C)O)[C@@H](C)O)C(C)C)C(=O)N[C@@H](CCC(=O)O)C(=O)N[C@@H](Cc1ccccc1)C(=O)N[C@H](C(=O)N[C@@H](C)C(=O)N[C@@H](Cc1c[nH]c2ccccc12)C(=O)N[C@@H](CC(C)C)C(=O)N[C@H](C(=O)N[C@@H](CCCNC(=N)N)C(=O)NCC(=O)N[C@@H](CCCNC(=N)N)C(=O)NCC(=O)O)C(C)C)[C@@H](C)CC)C(=O)O` [Free LIRA, Liraglutide], the Cl is on record as 0.183 ± 0.015 ^b L/h.
